PubChem BioAssay (NCI)
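Briefly, cells in 96-well plates were exposed to five compound concentrations for 48 h, and endpoints were estimated by linear interpolation. At the GI50, growth is halved. TGI marks complete inhibition of growth.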

Legend:
Experiment in all cases: DTP human tumour cell line panel, 48 h
[1] = test system: HOP-62 NSCLC
[2] = test system: UACC-62 melanoma
[3] = test system: NCI-H226 lung
[4] = test system: T-47D breast
[5] = test system: 786-0 renal
[6] = test system: SNB-75 CNS
[7] = test system: HCC-2998 colon
[8] = test system: MDA-MB-435
[9] = test system: DLD-1 colon
[10] = test system: SNB-78 CNS

`O=C(CSC(c1ccccc1)c1ccccc1)N/N=C/c1ccccc1Cl` was tested, and the GI50 [1] was 22.7 µM, the TGI [1] was > 76.8 µM and the GI50 [2] was 14.7 µM. For the same molecule, the TGI [2] was > 63.5 µM, the GI50 [3] was > 33 µM and the TGI [3] was > 68.2 µM. The GI50 [4] was > 100 µM, the TGI [4] was > 100 µM and the GI50 [5] was 19.8 µM. For the same molecule, the TGI [5] was 65.5 µM, the GI50 [6] was 7.6 µM and the TGI [6] was 30 µM. The GI50 [7] was 6.9 µM, the TGI [7] was > 75 µM and the GI50 [8] was 49.6 µM. For the same molecule, the TGI [8] was > 100 µM.
For `O=[N+]([O-])c1ccc(C2SCc3nc4ccccc4n32)cc1` (stereo unspecified), the TGI [1] was > 100 µM, the TGI [9] was > 100 µM and the TGI [2] was > 100 µM. The TGI [3] was > 100 µM, the TGI [10] was > 100 µM and the TGI [5] was > 100 µM.
For `Cc1cc(Cl)nc(N(CCCNc2ccnc3cc(Cl)ccc23)Cc2cccs2)n1`, the GI50 [1] was 1.83 µM, the TGI [1] was 10.7 µM and the GI50 [2] was 1.7 µM. For the same molecule, the TGI [2] was 4.51 µM, the GI50 [3] was 2.56 µM and the TGI [3] was 15.5 µM. The GI50 [4] was 1.82 µM, the TGI [4] was 8.02 µM and the GI50 [5] was 1.49 µM. It also gave a TGI [5] of 4.35 µM, a GI50 [6] of 2.08 µM and a TGI [6] of 13.6 µM. For the same molecule, the GI50 [7] was 2.09 µM, the TGI [7] was 6.12 µM and the GI50 [8] was 1.94 µM. It also gave a TGI [8] of 6.09 µM.
In the case of `CC(C)c1[nH]nc2c(NCc3ccc(-c4ccccn4)cc3)nc(SCCN(C)C)nc12`, the GI50 [1] was < 0.0177 µM, the TGI [1] was 0.236 µM and the GI50 [2] was 0.0427 µM. The TGI [2] was 0.4 µM, the GI50 [3] was 0.24 µM and the TGI [3] was 0.706 µM. The GI50 [4] was 0.0319 µM, the TGI [4] was 2.69 µM and the GI50 [5] was 0.0767 µM. It also gave a TGI [5] of 6.06 µM, a GI50 [6] of 0.0223 µM and a TGI [6] of 0.138 µM. For the same molecule, the GI50 [7] was < 0.0185 µM, the TGI [7] was 0.844 µM and the GI50 [8] was < 0.0176 µM. The TGI [8] was 0.797 µM.
In the case of `O=C(N=Nc1c(Cl)c(O)c2ccccc2c1O)C(=O)Nc1cccc(C(F)(F)F)c1`, the GI50 [1] was 11.5 µM, the TGI [1] was 24.7 µM and the GI50 [2] was 3.33 µM. The TGI [2] was 16.2 µM, the GI50 [3] was 6.78 µM and the TGI [3] was 28.2 µM. It also gave a GI50 [4] of 4.92 µM, a TGI [4] of 41.3 µM and a GI50 [5] of 12.6 µM. The TGI [5] was 25.1 µM, the GI50 [6] was 3.06 µM and the TGI [6] was 15.5 µM. The GI50 [7] was 10.4 µM, the TGI [7] was 22.9 µM and the GI50 [8] was 1.89 µM. The TGI [8] was 3.43 µM.
In the case of `CCC[n+]1cc2cc3c(cc2c2c1-c1cc4c(cc1C2)OCO4)OCO3` (tested in a mixture with another compound), the GI50 [1] was 0.546 µM, the TGI [1] was 6.53 µM and the GI50 [2] was 0.465 µM. For the same molecule, the TGI [2] was 1.7 µM, the GI50 [3] was 0.719 µM and the TGI [3] was 7.96 µM. The GI50 [4] was 0.267 µM, the TGI [4] was 1.61 µM and the GI50 [5] was 0.46 µM. The TGI [5] was 10 µM, the GI50 [6] was 0.403 µM and the TGI [6] was 1.38 µM. The GI50 [7] was 0.504 µM, the TGI [7] was 2.14 µM and the GI50 [8] was 0.785 µM. For the same molecule, the TGI [8] was 2.29 µM.
Work on `COC(=O)c1c2c(c(C)[n+]([O-])c1C)C(=O)C(NCc1ccc(F)cc1)=CC2=O` yielded a GI50 [1] of 2.4 µM, a TGI [1] of 22.5 µM and a GI50 [2] of 1.25 µM. For the same molecule, the TGI [2] was 2.65 µM, the GI50 [3] was 2.16 µM and the TGI [3] was 4.87 µM. The GI50 [4] was 1.72 µM, the TGI [4] was 4.23 µM and the GI50 [5] was 2.85 µM. The TGI [5] was 30.1 µM, the GI50 [6] was 2.23 µM and the TGI [6] was 5.96 µM. For the same molecule, the GI50 [7] was 1.79 µM, the TGI [7] was 4.57 µM and the GI50 [8] was 0.582 µM. For the same molecule, the TGI [8] was 1.84 µM.
With `CN(C)c1cc2c(Nc3ccc4c(cnn4Cc4ccccc4)c3)ncnc2cn1` the GI50 [1] was 8.35 µM, the TGI [1] was > 23.9 µM and the GI50 [2] was 6.96 µM. For the same molecule, the TGI [2] was 19.9 µM, the GI50 [3] was 15.9 µM and the TGI [3] was > 25 µM. For the same molecule, the GI50 [4] was 3.38 µM, the TGI [4] was > 20.5 µM and the GI50 [5] was 8.76 µM. For the same molecule, the TGI [5] was > 25 µM, the GI50 [6] was > 22 µM and the TGI [6] was > 25 µM. The GI50 [7] was 10.8 µM, the TGI [7] was > 25 µM and the GI50 [8] was 10.5 µM. The TGI [8] was > 25 µM.
`O=c1cc(-c2ccccc2)oc2cc(OCCCCCN3CCOCC3)cc(O)c12` gave a GI50 [1] of 10.2 µM, a TGI [1] of 23.1 µM and a GI50 [2] of 95.7 µM. For the same molecule, the TGI [2] was > 100 µM, the GI50 [3] was > 100 µM and the TGI [3] was > 100 µM. For the same molecule, the GI50 [4] was 42.5 µM, the TGI [4] was > 100 µM and the GI50 [5] was 30 µM. The TGI [5] was > 100 µM, the GI50 [6] was 3.64 µM and the TGI [6] was 15.2 µM. The TGI [7] was 8.38 µM, the GI50 [8] was > 100 µM and the TGI [8] was > 100 µM.
`COC(=O)C12C34C=CC5(CCC6(C=CC1(CC3)O6)C52C(=O)OC)O4` (stereo unspecified) was tested, and the TGI [1] was > 100 µM, the TGI [3] was > 100 µM and the TGI [10] was > 100 µM. For the same molecule, the TGI [5] was > 100 µM and the TGI [7] was > 100 µM.
For `O=C(NCc1ccco1)C1CCN(S(=O)(=O)c2ccc(Cl)cc2)CC1`, the GI50 [1] was > 100 µM, the TGI [1] was > 100 µM and the GI50 [2] was 80.5 µM. The TGI [2] was > 100 µM, the GI50 [3] was > 100 µM and the TGI [3] was > 100 µM. For the same molecule, the GI50 [4] was > 100 µM, the TGI [4] was > 100 µM and the GI50 [5] was > 100 µM. The TGI [5] was > 100 µM, the GI50 [6] was > 100 µM and the TGI [6] was > 100 µM. For the same molecule, the GI50 [7] was > 100 µM, the TGI [7] was > 100 µM and the GI50 [8] was 35.4 µM. The TGI [8] was > 100 µM.
For `CC(C)N1C(C)[C@@H](c2ccccc2)O[P@@]1(=O)CC1=CCCCC1` (stereo partly specified), the TGI [1] was > 100 µM, the TGI [9] was > 100 µM and the TGI [2] was > 100 µM. For the same molecule, the TGI [3] was > 100 µM, the TGI [5] was > 100 µM and the TGI [6] was > 100 µM. For the same molecule, the TGI [7] was > 100 µM.
